{
  "source": "ChEMBL document CHEMBL1128211",
  "about": "“3D-quantitative structure-activity relationships of human immunodeficiency virus type-1 proteinase inhibitors: comparative molecular field analysis of 2-heterosubstituted statine derivatives-implications for the design of novel inhibitors” (J Med Chem, 1995)",
  "data": [
    {"molecular_target": "Human immunodeficiency virus type 1 protease (Human immunodeficiency virus 1, UniProt Q72874)", "assay": "Inhibitory activity was determined against HIV type 1 protease", "units": {"Ki": "nM"}, "values": [
      {"smiles": "CC(C)[C@H](NC(=O)OCc1ccccc1)C(=O)N[C@@H](Cc1ccccc1)[C@@H](O)[C@@H](NC1CCC(O)CC1)C(=O)N[C@H](C(=O)NCc1ccccc1)C(C)C", "note": "(stereo in doubt; 282808)", "Ki": 1700},
      {"smiles": "CC(C)(C)[C@H](NC(=O)OCc1ccccc1)C(=O)N[C@@H](Cc1ccccc1)[C@@H](O)[C@@H](NCc1ccc(OCCN2CCOCC2)cc1)C(=O)N[C@H](CO)c1ccccc1", "note": "(stereo in doubt; 283267)", "Ki": 129},
      {"smiles": "CC(C)(C)[C@H](NC(=O)OCc1ccccc1)C(=O)N[C@@H](Cc1ccccc1)[C@@H](O)[C@@H](NCc1ccc(OCCN2CCOCC2)cc1)C(=O)N[C@H](CO)c1ccccc1", "note": "(stereo in doubt; 283268)", "Ki": 100},
      {"smiles": "CC(C)[C@H](NC(=O)OCc1ccccc1)C(=O)N[C@@H](Cc1ccccc1)[C@@H](O)[C@@H](NC1CCC(O)CC1)C(=O)N[C@H](C(=O)NCc1ccccc1)C(C)C", "note": "(stereo in doubt; c)", "Ki": 1410}
    ]}
  ]
}
